This is an account of results in patent US7427625B2, “Substituted thiatriazaacenaphthylene-6-carbonitrile kinase inhibitors” (Janssen Pharmaceutica, N.V., priority 2006, dated 2008).

One experiment concerns the target T1, EGFR (Homo sapiens, UniProt P00533).
T1 construct: The intracellular portion of EGFR started at nucleotide 2189 (corresponding to amino acid 667) and ended at the termination codon; made in house; host or cells: Sf9 insect cells (baculovirus)
In words: EGFR Kinase Assay. In kind it is biochemical. The conditions noted are these: for inhibition at 2 µM: test concentration of 2 μM, read-out: EGFR percent inhibition. The procedure, abridged: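 GST-fused EGFR intracellular domain (aa 667 to end), Sf9-expressed, phosphorylating biotinylated polyGluTyr with 5 μM ATP plus γ-33P ATP in Tris pH 8.0, MgCl2, vanadate, 1 mM DTT; 1 h, 30 °C, streptavidin Flashplate scintillation read. Triplicate 16-point half-log series from 200 uM; IC50 from % inhibition vs log concentration, else % inhibition at 2 μM.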

A further experiment has as its target T2, Aurora-A (Mus musculus, UniProt P97477).
T2 construct: followed by the full length protein encoding the murine Aurora-A; polyhistidine (N); made in house; host or cells: sf9 insect cells
T2 sequence (P97477 1-395): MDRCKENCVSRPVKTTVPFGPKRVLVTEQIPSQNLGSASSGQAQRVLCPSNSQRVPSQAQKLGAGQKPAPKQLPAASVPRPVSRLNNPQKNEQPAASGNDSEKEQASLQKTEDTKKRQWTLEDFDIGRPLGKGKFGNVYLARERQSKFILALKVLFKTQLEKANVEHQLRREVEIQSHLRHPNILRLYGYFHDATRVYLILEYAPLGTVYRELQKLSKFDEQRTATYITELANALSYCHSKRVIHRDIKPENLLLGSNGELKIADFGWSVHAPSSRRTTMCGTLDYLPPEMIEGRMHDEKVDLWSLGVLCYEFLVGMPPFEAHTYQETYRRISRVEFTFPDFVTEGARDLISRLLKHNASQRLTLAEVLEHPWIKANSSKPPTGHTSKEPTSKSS
The experiment can be described thus: Aurora-A Screening Assay. Format: biochemical, murine.

The target of a further experiment is T3, VEGF-R2 (Rattus norvegicus, UniProt O08775).
T3 construct: polyhistidine (N)
T3 sequence (O08775 786-1343): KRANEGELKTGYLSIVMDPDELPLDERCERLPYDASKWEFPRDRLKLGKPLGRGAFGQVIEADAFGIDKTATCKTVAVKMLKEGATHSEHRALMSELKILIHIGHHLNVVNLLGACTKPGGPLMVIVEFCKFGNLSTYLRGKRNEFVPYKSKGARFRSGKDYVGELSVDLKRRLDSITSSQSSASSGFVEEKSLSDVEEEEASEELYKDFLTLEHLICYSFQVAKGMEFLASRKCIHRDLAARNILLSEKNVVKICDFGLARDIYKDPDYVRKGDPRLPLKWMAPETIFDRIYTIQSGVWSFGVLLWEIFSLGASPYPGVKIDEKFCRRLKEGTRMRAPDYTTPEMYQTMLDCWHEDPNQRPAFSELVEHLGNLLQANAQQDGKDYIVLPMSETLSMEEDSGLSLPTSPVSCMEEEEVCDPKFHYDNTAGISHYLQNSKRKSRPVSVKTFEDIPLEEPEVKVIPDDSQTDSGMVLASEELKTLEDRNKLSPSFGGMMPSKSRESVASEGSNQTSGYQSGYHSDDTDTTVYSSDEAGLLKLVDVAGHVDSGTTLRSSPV
In words: VEGF-R2 Screening Assay. Format: biochemical.

The target in another experiment is T4, HER-2 (Homo sapiens, UniProt P04626).
T4 construct: the nucleotides encoding amino acids 679 to 1255 of HER-2; purchased Proqinase (Freiburg, Germany)
T4 sequence (P04626 679-1255): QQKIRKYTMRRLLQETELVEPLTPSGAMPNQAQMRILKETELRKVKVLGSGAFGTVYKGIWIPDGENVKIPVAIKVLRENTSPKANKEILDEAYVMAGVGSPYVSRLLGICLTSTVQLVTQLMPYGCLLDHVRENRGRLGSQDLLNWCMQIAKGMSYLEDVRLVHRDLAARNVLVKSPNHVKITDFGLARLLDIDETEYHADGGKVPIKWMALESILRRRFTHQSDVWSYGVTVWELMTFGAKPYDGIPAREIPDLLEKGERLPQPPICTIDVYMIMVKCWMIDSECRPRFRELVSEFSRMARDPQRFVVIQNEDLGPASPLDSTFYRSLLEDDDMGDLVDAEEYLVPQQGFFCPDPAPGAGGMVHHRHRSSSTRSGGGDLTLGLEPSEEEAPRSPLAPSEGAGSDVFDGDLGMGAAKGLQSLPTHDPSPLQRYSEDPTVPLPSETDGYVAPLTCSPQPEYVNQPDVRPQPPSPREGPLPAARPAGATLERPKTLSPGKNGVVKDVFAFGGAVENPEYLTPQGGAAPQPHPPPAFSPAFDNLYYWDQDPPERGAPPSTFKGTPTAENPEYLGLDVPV
In words: HER-2 Kinase Assay. In kind it is biochemical. An outline of the steps:
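GST-HIS6-thrombin fusion of HER-2 residues 679–1255, assayed with biotinylated polyGluTyr, 1 μM ATP plus γ-33P-ATP, Mg2+, Mn2+ and vanadate in Hepes pH 7.5 for 1 h at 30 °C. Incorporation read by streptavidin Flashplate scintillation counting; IC50 values, or % inhibition at 1 μM.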

T1 sequence (P00533 669-1210 limits assumed): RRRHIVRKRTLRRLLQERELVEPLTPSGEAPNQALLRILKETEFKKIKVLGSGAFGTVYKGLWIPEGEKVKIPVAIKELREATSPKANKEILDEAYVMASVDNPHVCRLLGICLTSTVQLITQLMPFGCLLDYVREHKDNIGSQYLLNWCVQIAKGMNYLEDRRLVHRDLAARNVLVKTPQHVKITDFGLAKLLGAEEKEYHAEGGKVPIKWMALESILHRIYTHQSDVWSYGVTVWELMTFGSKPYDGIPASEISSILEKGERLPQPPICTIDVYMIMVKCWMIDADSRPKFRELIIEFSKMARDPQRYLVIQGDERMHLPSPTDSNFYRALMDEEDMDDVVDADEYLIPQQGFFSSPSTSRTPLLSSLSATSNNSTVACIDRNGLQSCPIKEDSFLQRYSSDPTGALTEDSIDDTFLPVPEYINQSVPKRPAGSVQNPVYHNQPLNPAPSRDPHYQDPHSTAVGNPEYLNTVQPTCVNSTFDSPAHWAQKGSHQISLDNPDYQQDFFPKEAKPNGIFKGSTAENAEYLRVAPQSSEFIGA

As to `COC1CCN(Cc2ccc(NC(=O)c3sc4ncc(C#N)c5c4c3NC(=O)N5c3ccc(Oc4ccccc4)cc3)cc2)CC1` [Cpd 51, 6-cyano-4-oxo-5-(4-phenoxy-phenyl)-4,5-dihydro-3H-1-thia-3,5,8-triaza-acenaphthylene-2-carboxylic acid [4-(4-methoxy-piperidin-1-ylmethyl)-phenyl]-amide], at EGFR, the inhibition – broadly, the change of the read-out against control, counted positive when it falls – at 2 µM was 48%. Further, the results for the IC50 against Aurora-A, against VEGF-R2 and against HER-2 were more than 100 µM, more than 100 µM and more than 10 µM, respectively.
As for `CCOC(=O)c1sc2nc(O)c(C#N)c3c2c1NC(=O)N3c1ccc(Oc2ccccc2)cc1` [Cpd 52, 6-cyano-7-hydroxy-4-oxo-5-(4-phenoxy-phenyl)-4,5-dihydro-3H-1-thia-3,5,8-triaza-acenaphthylene-2-carboxylic acid ethyl ester], the IC50 – broadly, the midpoint of a concentration-inhibition curve – on EGFR was 0.0169 µM; on Aurora-A, more than 100 µM; against VEGF-R2, more than 100 µM; against HER-2 it was more than 10 µM.
In the case of `CCOC(=O)c1sc2nc(Cl)c(C#N)c3c2c1NC(=O)N3c1ccc(Oc2ccccc2)cc1` [Cpd 53, 7-chloro-6-cyano-4-oxo-5-(4-phenoxy-phenyl)-4,5-dihydro-3H-1-thia-3,5,8-triaza-acenaphthylene-2-carboxylic acid ethyl ester], the inhibition at 2 µM at EGFR was found to be 2%. Further, the IC50 at Aurora-A, on VEGF-R2 and against HER-2 was more than 100 µM throughout.
Consider `N#Cc1cnc2sc(C(=O)Nc3ccc(CN4CCC(F)(F)CC4)cc3)c3c2c1N(c1c(Cl)ccc2c1OCO2)C(=O)N3` [Cpd 54, 5-(5-chloro-benzo[1,3]dioxol-4-yl)-6-cyano-4-oxo-4,5-dihydro-3H-1-thia-3,5,8-triaza-acenaphthylene-2-carboxylic acid [4-(4,4-difluoro-piperidin-1-ylmethyl)-phenyl]-amide], for which, on EGFR, the inhibition at 2 µM turned out to be 11%. For the same compound, the values for the IC50 against Aurora-A, on VEGF-R2 and on HER-2 were 15.3 µM, 12.3 µM and 3.37 µM, respectively.
